What all share (format): in vivo
One assay concerns GPA (Myzus persicae). In words: Bioassays on Green Peach Aphid (GPA), foliar spray on cabbage seedlings. To be noted: 72 h, corrected % control (Abbott), 200 ppm spray on cabbage seedlings, three days, read-out: GPA Rating. As to the method:
Bioassays on Green Peach Aphid (“GPA”) (Myzus persicae) Certain molecules disclosed in this document were tested against GPA using procedures described in the following example. In the reporting of the results, the “GPA Rating Table” was used (See Table Section). Cabbage seedlings grown in 3-inch pots, with 2-3 small (3-5 cm) true leaves, were used as test substrate. The seedlings were infested with 20-50 GPA (wingless adult and nymph stages) one day prior to chemical application. Four pots with individual seedlings were used for each treatment. Test compounds (2 mg) were dissolved in 2 mL of acetone/MeOH (1:1) solvent, forming stock solutions of 1000 ppm test compound. The stock solutions were diluted 5× with 0.025% Tween 20 in H2O to obtain the solution at 200 ppm test compound. A hand-held aspirator-type sprayer was used for spraying a solution to both sides of […] leaves until runoff. Reference plants (solvent check) were sprayed with the diluent only containing 20% by volume of acetone/MeOH (1:1) solvent. Treated plants were held in a holding room for three days at approximately 25° C. and ambient relative humidity (RH) prior to grading. Evaluation was conducted by counting the number of live aphids per plant under a microscope. Percent Control was measured by using Abbott's correction formula (W. S. Abbott, “A Method of Computing the Effectiveness of an Insecticide” J. Econ. Entomol. 18 (1925), pp. 265-267) as follows. Corrected % Control=100*(X−Y)/X • where • X=No. of live aphids on solvent check plants and • Y=No. of live aphids on treated plants The results are indicated in the table entitled “Table 3: Assay Results” (See Table Section).

For a further assay, the system named is CEW (Helicoverpa zea). In words: Bioassays on Corn Earworm (CEW), 128-well diet tray assay. Conditions: Helicoverpa zea, 168 h; percent mortality, second instar larvae, 50 μg/cm^2 on artificial diet, five to seven days, 25° C.; read-out: CEW Rating. How it is done: (§1) Bioassays on Beet Armyworm (“BAW”) and Corn Earworm (“CEW”) and Cabbage Looper (“CL”)
(§2) Certain molecules disclosed in this document were tested against BAW and CEW and CL using procedures described in the following examples. In the reporting of the results, the “BAW & CEW & CL Rating Table” was used (See Table Section).
Bioassays on CEW (Helicoverpa zea)
Bioassays on CEW were conducted using a 128-well diet tray assay. one to five second instar CEW larvae were placed in each well (3 mL) of the diet tray that had been previously filled with 1 mL of artificial diet to which 50 μg/cm^2 of the test compound (dissolved in 50 μL of 90:10 acetone-water mixture) had been applied (to each of eight wells) and then allowed to dry. Trays were covered with a clear self-adhesive cover, and held at 25° C., 14:10 light-dark for five to seven days. Percent mortality was recorded for the larvae in each well; activity in the eight wells was then averaged. The results are indicated in the table entitled “Table 3: Assay Results” (See Table Section).

The test system of a further assay is BAW (Spodoptera exigua). In words: Bioassays on Beet Armyworm (BAW), 128-well diet tray assay. Conditions: Spodoptera exigua, 168 h, read-out: BAW Rating. How it is done: as §1, §2
Bioassays on BAW (Spodoptera exigua)
Bioassays on BAW were conducted using a 128-well diet tray assay. one to five second instar BAW larvae were placed in each well (3 mL) of the diet tray that had been previously filled with 1 mL of artificial diet to which 50 μg/cm^2 of the test compound (dissolved in 50 μL of 90:10 acetone-water mixture) had been applied (to each of eight wells) and then allowed to dry. Trays were covered with a clear self-adhesive cover, and held at 25° C., 14:10 light-dark for five to seven days. Percent mortality was recorded for the larvae in each well; activity in the eight wells was then averaged. The results are indicated in the table entitled “Table 3: Assay Results” (See Table Section).

Turning to `CNC(=O)c1ccc(/C=C/C(c2cc(Cl)cc(Cl)c2)C(F)(F)F)cc1` (stereo not shown) [AC1], the pest or weed control at 200 ppm in the assay with GPA (Myzus persicae) was 0 to 80%.

`CN(C)C(=O)c1ccc(/C=C/C(c2cc(Cl)cc(Cl)c2)C(F)(F)F)cc1` (stereo not shown) [AC3]: in the assay on GPA (Myzus persicae), the pest or weed control at 200 ppm lay within 0 to 80%. With `O=C(NCC(F)(F)F)c1ccc(/C=C/C(c2cc(Cl)cc(Cl)c2)C(F)(F)F)cc1` (stereo not shown) [AC4], in the assay on CEW (Helicoverpa zea), the pest or weed control at 50 µg/cm2 lay within 50 to 100%. Also, the pest or weed control at 200 ppm in the assay with GPA (Myzus persicae) is 0 to 80%. For `O=C(c1ccc(/C=C/C(c2cc(Cl)cc(Cl)c2)C(F)(F)F)cc1)N1CCOCC1` (stereo not shown) [AC5], in the assay with GPA (Myzus persicae), the pest or weed control at 200 ppm is 0 to 80%. Still for that read-out and setting: with `Cc1cc(/C=C/C(c2cc(Cl)cc(Cl)c2)C(F)(F)F)ccc1C(=O)NCC1CCOC1` (stereo not shown) [AC19] the figure was 0 to 80%; with `Cc1cc(/C=C/C(c2cc(Cl)cc(Cl)c2)C(F)(F)F)ccc1C(=O)NCC(=O)NNC(=O)C1CC1` (stereo not shown) [AC47], 0 to 80%. As for `Cc1cc(/C=C/C(c2cc(Cl)cc(Cl)c2)C(F)(F)F)ccc1C(=O)NCc1nccn1C` (stereo not shown) [AC50], the pest or weed control at 50 µg/cm2 with BAW (Spodoptera exigua) is 50 to 100%. Further, the pest or weed control at 200 ppm with GPA (Myzus persicae) lay in the range of 0 to 80%. Turning to `COc1cc(/C=C/C(c2cc(Cl)c(F)c(Cl)c2)C(F)(F)F)ccc1C(=O)NCc1ccc(Cl)nc1` (stereo not shown) [AC70], the pest or weed control at 200 ppm in the assay on GPA (Myzus persicae) fell in the range of 0 to 80%. Regarding `Cc1cc(/C=C/C(c2cc(Cl)cc(Cl)c2)C(F)(F)F)ccc1C(=O)N(C)Cc1ccc(Cl)nc1` (stereo not shown) [AC117], the pest or weed control at 50 µg/cm2 with BAW (Spodoptera exigua) was in the range of 50 to 100%. In the assay with GPA (Myzus persicae), the pest or weed control at 200 ppm was in the range of 0 to 80%. In the case of `CC(C)(C)C(=O)NCc1ccc(/C=C/C(c2cc(Cl)c(Cl)c(Cl)c2)C(F)(F)F)cc1Cl` (stereo not shown) [CC12], the pest or weed control at 200 ppm in the assay on GPA (Myzus persicae) lay within 0 to 80%. Consider `O=C(NCc1ccc(/C=C/C(c2cc(Cl)c(Cl)c(Cl)c2)C(F)(F)F)cc1Br)C1CC1` (stereo not shown) [CC26], for which, in the assay with BAW (Spodoptera exigua), the pest or weed control at 50 µg/cm2 fell in the range of 50 to 100%. Also, the pest or weed control at 200 ppm with GPA (Myzus persicae) is 0 to 80%. With `CC(C)(C)OC(=O)NCc1ccc(/C=C/C(c2cc(Cl)c(Cl)c(Cl)c2)C(F)(F)F)cc1Cl` (stereo not shown) [CC39], the pest or weed control at 200 ppm in the assay on GPA (Myzus persicae) fell in the range of 0 to 80%.

On to `COC(=O)C(=O)NCc1ccc(/C=C/C(c2cc(Cl)c(Cl)c(Cl)c2)C(F)(F)F)cc1Cl` (stereo not shown) [CC41, (E)-Methyl 2-((2-chloro-4-(4,4,4-trifluoro-3-(3,4,5-trichlorophenyl)but-1-en-1-yl)benzyl)amino)-2-oxoacetate], for which the pest or weed control at 200 ppm with GPA (Myzus persicae) lay within 0 to 80%. Still for that read-out and setting: the same measure for `O=C(CC(F)(F)F)NOc1ccc(/C=C/C(c2cc(Cl)c(Cl)c(Cl)c2)C(F)(F)F)cc1` (stereo not shown) [CC53]: 0 to 80%. Take `N#Cc1cc(/C=C/C(c2cc(Cl)c(Cl)c(Cl)c2)C(F)(F)F)ccc1-n1cnc([N+](=O)[O-])n1` (stereo not shown) [DC40, (E)-2-(3-Nitro-1H-1,2,4-triazol-1-yl)-5-(4,4,4-trifluoro-3-(3,4,5-trichlorophenyl)but-1-en-1-yl)benzonitrile]: the pest or weed control at 50 µg/cm2 in the assay with BAW (Spodoptera exigua) and in the assay on CEW (Helicoverpa zea) was 50 to 100% each time. For the molecule `N#Cc1cc(/C=C/C(c2cc(Cl)c(Cl)c(Cl)c2)C(F)(F)F)ccc1-n1cnc(N)n1` (stereo not shown) [DC41, (E)-2-(3-Amino-1H-1,2,4-triazol-1-yl)-5-(4,4,4-trifluoro-3-(3,4,5-trichlorophenyl)but-1-en-1-yl)benzonitrile], the pest or weed control at 50 µg/cm2 with BAW (Spodoptera exigua) and with CEW (Helicoverpa zea) was 50 to 100% each time. Consider `N#Cc1cc(/C=C/C(c2cc(Cl)c(Cl)c(Cl)c2)C(F)(F)F)ccc1-n1cnc(N(C(=O)C2CC2)C(=O)C2CC2)n1` (stereo not shown) [DC42, (E)-N-(1-(2-Cyano-4-(4,4,4-trifluoro-3-(3,4,5-trichlorophenyl)but-1-en-1-yl)phenyl)-1H-1,2,4-triazol-3-yl)-N-(cyclopropanecarbonyl)cyclopropanecarboxamide], for which the pest or weed control at 50 µg/cm2 in the assay with BAW (Spodoptera exigua) and in the assay with CEW (Helicoverpa zea) was 50 to 100% in each case. With `N#Cc1cc(/C=C/C(c2cc(Cl)c(Cl)c(Cl)c2)C(F)(F)F)ccc1-n1cnc(NC(=O)C2CC2)n1` (stereo not shown) [DC43, (E)-N-(1-(2-Cyano-4-(4,4,4-trifluoro-3-(3,4,5-trichlorophenyl)but-1-en-1-yl)phenyl)-1H-1,2,4-triazol-3-yl)cyclopropanecarboxamide], the pest or weed control at 50 µg/cm2 in the assay with BAW (Spodoptera exigua) and in the assay on CEW (Helicoverpa zea) was 50 to 100% each time. For `Cc1cc(/C=C/C(c2cc(Cl)cc(Cl)c2)C(F)(F)F)cc(C#N)c1-n1cncn1` (stereo not shown) [DC44], the pest or weed control at 50 µg/cm2 with BAW (Spodoptera exigua) and in the assay with CEW (Helicoverpa zea) was 50 to 100% in each case. As for `Cc1cc(/C=C/C(c2cc(Cl)c(Cl)c(Cl)c2)C(F)(F)F)cc(C#N)c1-n1cncn1` (stereo not shown) [DC45], the pest or weed control at 50 µg/cm2 in the assay with BAW (Spodoptera exigua) and in the assay on CEW (Helicoverpa zea) was 50 to 100% throughout. In the case of `N#Cc1cc(/C=C\C(c2cc(Cl)c(F)c(Cl)c2)C(F)(F)F)ccc1-n1cncn1` (stereo not shown) [DC46], the pest or weed control at 50 µg/cm2 with BAW (Spodoptera exigua) and with CEW (Helicoverpa zea) was 50 to 100% each time. Turning to `FC(F)(F)C(/C=C/c1ccc(-n2cncn2)c(Br)c1)c1cc(Cl)cc(Cl)c1` (stereo not shown) [DC47], the pest or weed control at 50 µg/cm2 in the assay with BAW (Spodoptera exigua) and with CEW (Helicoverpa zea) was 50 to 100% each time. For the molecule `Fc1cc(/C=C/C(c2cc(Cl)cc(Cl)c2)C(F)(F)F)ccc1-n1cncn1` (stereo not shown) [DC48], the pest or weed control at 50 µg/cm2 with BAW (Spodoptera exigua) and in the assay on CEW (Helicoverpa zea) was 50 to 100% throughout. Take `FC(F)(F)C(/C=C/c1ccc(-n2cncn2)c(Cl)c1)c1cc(Cl)c(Cl)c(Cl)c1` (stereo not shown) [DC49]: the pest or weed control at 50 µg/cm2 with BAW (Spodoptera exigua) and in the assay with CEW (Helicoverpa zea) was 50 to 100% each time. In the case of `FC(F)(F)C(/C=C/c1ccc(-n2cncn2)c(Cl)c1)c1cc(Cl)cc(Cl)c1` (stereo not shown) [DC50], the pest or weed control at 50 µg/cm2 with BAW (Spodoptera exigua) and with CEW (Helicoverpa zea) was 50 to 100% each time. In the case of `FC(F)(F)c1cc(/C=C/C(c2cc(Cl)cc(Cl)c2)C(F)(F)F)ccc1-n1cncn1` (stereo not shown) [DC51], the pest or weed control at 50 µg/cm2 in the assay on BAW (Spodoptera exigua) and in the assay with CEW (Helicoverpa zea) was 50 to 100% each time. In the case of `CNc1cc(/C=C/C(c2cc(Cl)cc(Cl)c2)C(F)(F)F)ccc1-n1cncn1` (stereo not shown) [DC57, (E)-5-(3-(3,5-Dichlorophenyl)-4,4,4-trifluorobut-1-en-1-yl)-N-methyl-2-(1H-1,2,4-triazol-1-yl)aniline], the pest or weed control at 50 µg/cm2 with BAW (Spodoptera exigua) and in the assay on CEW (Helicoverpa zea) was 50 to 100% throughout. Take `CCOC(=O)c1cc(/C=C/C(c2cc(Cl)cc(Cl)c2)C(F)(F)F)ccc1-n1cncn1` (stereo not shown) [DC60]: the pest or weed control at 50 µg/cm2 in the assay with BAW (Spodoptera exigua) and with CEW (Helicoverpa zea) was 50 to 100% in each case. In the case of `Cc1cc(/C=C/C(c2cc(Cl)cc(Cl)c2)C(F)(F)F)ccc1-n1cncn1` (stereo not shown) [DC62], the pest or weed control at 50 µg/cm2 in the assay on BAW (Spodoptera exigua) and in the assay with CEW (Helicoverpa zea) was 50 to 100% throughout.

Consider `Cc1cc(/C=C/C(c2cc(Cl)c(Cl)c(Cl)c2)C(F)(F)F)ccc1-n1cncn1` (stereo not shown) [DC63], for which the pest or weed control at 50 µg/cm2 in the assay on BAW (Spodoptera exigua) and in the assay on CEW (Helicoverpa zea) was 50 to 100% each time. Take `FC(F)(F)C(/C=C/c1ccc(-n2cncn2)cc1Cl)c1cc(Cl)c(Cl)c(Cl)c1` (stereo not shown) [DC66]: the pest or weed control at 50 µg/cm2 in the assay on BAW (Spodoptera exigua) and with CEW (Helicoverpa zea) was 50 to 100% in each case.

On to `FC(F)(F)C(/C=C/c1ccc(-n2cncn2)cc1Cl)c1cc(Cl)cc(Cl)c1` (stereo not shown) [DC67], for which the pest or weed control at 50 µg/cm2 in the assay on BAW (Spodoptera exigua) and in the assay on CEW (Helicoverpa zea) was 50 to 100% in each case.

As to `C/C(=C\C(c1cc(Cl)cc(Cl)c1)C(F)(F)F)c1ccc(-n2cncn2)cc1` (stereo not shown) [DC68, (E)-1-(4-(4-(3,5-Dichlorophenyl)-5,5,5-trifluoropent-2-en-2-yl)phenyl)-1H-1,2,4-triazole], the pest or weed control at 50 µg/cm2 in the assay on BAW (Spodoptera exigua) and in the assay on CEW (Helicoverpa zea) was 50 to 100% throughout. With `COC(/C=C/c1ccc(-n2cncn2)cc1)(c1cc(Cl)cc(Cl)c1)C(F)(F)F` (stereo not shown) [DC70, (E)-1-(4-(3-(3,5-Dichlorophenyl)-4,4,4-trifluoro-3-methoxybut-1-en-1-yl)phenyl)-1H-1,2,4-triazole], the pest or weed control at 50 µg/cm2 with BAW (Spodoptera exigua) and with CEW (Helicoverpa zea) was 50 to 100% each time.

Source of the values: patent publication US9210927B2, “Pesticidal compositions and processes related thereto” (Dow AgroSciences LLC, priority 2013, dated 2015).
